In patent US9636317B2, “Compositions and methods of use of phorbol esters” (priority 2007, dated 2017):
Values joined by “and” are separate entries in the source; they are usually repeats but may differ in a detail not shown here. Equal entries are not always repeated. “Also recorded” adds a separate entry of the source.

Legend:
Type in all cases: in vivo, human
[1] = Dose ranging study: toxicity and side effects of TPA doses given clinically by i.v. infusion
Procedure: Due to the strong local irritation caused by TPA application, TPA was given to patients by intravenous (i.v.) infusion. TPA solution in a sterile syringe was injected into 200 ml of sterile saline and mixed well for i.v. infusion.
One mg TPA in solution was mixed well with 200 ml of sterile saline for intravenous infusion which was completed in 1 h at the rate of 16 μg/min. […] The above symptoms could be alleviated by giving the patients glucocorticoids. […] However, these side effects were short lived and reversible. The cardiac, hepatic, renal and pulmonary functions were all found to be normal.
0.5 mg of TPA in solution was mixed well with 200 ml of saline for intravenous infusion which was completed in 1 h at the rate of 8 μg/min. […] The patients tolerated the lower dose more easily. […] Difficulty in breathing was not observed. The cardiac, hepatic, renal and pulmonary functions were all normal.
0.25 mg of TPA in solution was mixed well with 200 ml of saline for intravenous infusion which was completed in 1 h at the rate of 4 μg/min. […] The cardiac, hepatic, renal and pulmonary functions were all normal.

[2] = test system: symptomatic HIV patients; assay: First clinical study of HIV+ patients: symptoms and side effects (incl. case studies)
Procedure: Twelve symptomatic patients (five males and seven females) between the ages of 35 to 52 all of whom were infected with HIV in 1995 through blood transfusion and were refractory to standard treatments for HIV were treated with TPA. Each patient was administered a weight adjusted dosage of TPA (75 μg/sq m) in 200 ml of sterile saline by i.v. over one hour. This dose was administered once daily for the first three days of treatment. Each patient was then given this dose every other day for days 4 to 18 followed by a six month rest period prior to a second course of treatment according to the same protocol.
(§1) Results of treatment of initially symptomatic AIDS patients treated with TPA according to the protocols of Example III, IV, and V. Patients who participated in multiple studies are in some cases identified by more than one patient number. All patient identification numbers correspond to the patient numbers in Tables 1-7.

[3] = Third clinical study of HIV+ patients: periphery blood profile; settings: one value per patient
Procedure: (§2) Each patient in the study received 150 μg of TPA in 200 ml of sterile saline by intravenous infusion over a 1.5 to 2 hour period daily for 60 days for a total administered dose of 9.0 mg. Following completion of the 60 days of TPA therapy, these patients remained under observation for an additional 60 days though the received no further treatment.
CD3, CD4 and CD8 levels in peripheral blood were quantitated prior to starting treatment, and again at 30 and 60 days using flow cytometry and the appropriate antibodies obtained from B.D. Bioscience, San Diego, Calif. Viral load was determined using conventional methods at Kuang Ann men Hospital, Beijing, China. Patients RBC, WBC, platelets and hemoglobin levels were also measured. […]

[4] = test system: HIV patients; assay: Third clinical study of HIV+ patients: symptoms and side effects (incl. case studies)
Procedure: Six patients, two males and four females between the ages of 37 and 52 years of age (Patients #13-18), were treated with TPA. Four of these patients previously received TPA treatment in combination with anti-HIV drugs in the two previous clinical studies. The two remaining patients had never been treated with TPA, but had previously received anti-HIV drug regimens. All treatments were stopped three days prior to the initiation of the third clinical study and were not resumed until 60 days after completion of the TPA treatment. The resumption of the standard HIV treatments was required by local health authorities.
as §2, §1

[5] = test system: terminal breast cancer; assay: Treatment of breast cancer (patient case); settings: 35 injections, 0.18 to 0.26 mg TPA three to four times a week
Excerpt: Patient six was diagnosed with terminal breast cancer. They were unresponsive to either radiation or chemotherapy and the cancer had metastasized into the bone leaving their wheelchair bound.

[6] = Treatment of individuals who have suffered a stroke (patient cases)
Procedure: Patient seven, suffered a stroke eighteen months prior to treatment with TPA. At the time TPA treatment was initiated, they were unable to walk without a cane, had difficulty with both their left hand and left leg and was tired and weak. They received injections of 1 ampoule containing 0.19 mg of TPA (0.125 mg/m^2) every other day for four weeks, then 0.24 mg of TPA (1.25×0.125 mg/m^2) every other day for 2 weeks, and then 0.26 mg of TPA (1.5×0.125 mg/m^2) every other day for an additional 3 weeks.
Patient four, suffered a stroke seven years prior to beginning treatment with TPA. They received 3-4 injections of 0.19 mg of TPA (0.125 mg/m^2) per week for ten weeks for a total of 35 injections.

[7] = Reduction of periorbital hyperpigmentation; settings: 6 women and 1 man
Procedure: 6 women and 1 man with excessive periorbital hyperpigmentation were treated with TPA.

[8] = Treatment of rheumatoid arthritis (patient case); settings: multiple injections of TPA
[9] = Treatment of urinary incontinence (patient cases)
Excerpt: Patient twelve has suffered from urinary incontinence for more than 30 years.
Patient one has suffered from urinary incontinence for fifteen years.

[10] = protocol of Example III (first or repeat course)
[11] = protocol of Example III (first or repeat course), individual patients
[12] = twelve symptomatic HIV patients

Q: Which results are given for `CCCCCCCCCCCCCC(=O)O[C@@H]1[C@@H](C)[C@@]2(O)[C@@H](C=C(CO)C[C@]3(O)C(=O)C(C)=C[C@@H]23)[C@@H]2C(C)(C)[C@]12OC(C)=O` [TPA, 12-O-tetradecanoylphorbol-13-acetate]?
A: Hb in the urine ([1]; 0.25 mg/patient ×4/week): No Hb was detected in the urine; cardiac, hepatic, renal and pulmonary functions ([1]; 0.25 mg/patient ×4/week): normal; chills and fever ([1]; 0.25 mg/patient ×4/week): observed, but to a much lesser extent than with the higher dosages; difficulty in breathing ([1]; 0.25 mg/patient ×4/week): no patient suffered difficulty in breathing; Hb in the urine ([1]; 0.5 mg/patient ×2/week): Occasionally, Hb was detected in patients' urine; cardiac, hepatic, renal and pulmonary functions ([1]; 0.5 mg/patient ×2/week): normal; difficulty in breathing ([1]; 0.5 mg/patient ×2/week): not observed; Hb in the urine ([1]; 1 mg/patient/week): Hb was detected in the urine; bleeding ([1]; 1 mg/patient/week): caused a minority of patients to bleed; cardiac, hepatic, renal and pulmonary functions ([1]; 1 mg/patient/week): normal; difficulty in breathing ([1]; 1 mg/patient/week): several patients suffered for a short period of time difficulty in breathing; duration of fever ([1]; 1 mg/patient/week i.v. infusion): 3 to 5 h; patients' temperature (fever) ([1]; 1 mg/patient/week i.v. infusion in 1 h): 37.5-39.5 °C; duration of chills ([1]; 1 mg/patient/week i.v. infusion, start one hour after administration): about 30 min; duration of shortness of breath ([2]; first treatment with TPA, individual patients): 15 min; platelet count after TPA treatment ([2]; patient #10, rose from 30,000): 110,000 per microliter; other side effects during TPA treatment (individual patient) ([2]; protocol of Example III): did not experience an increase in body temperature or any other side effect; also recorded: mild dizziness and headache; also recorded: serious skin irritation; also recorded: skin irritation due to a leaking needle; symptom free period after TPA therapy (individual patient) [2, 10]: five months; also recorded: one year; symptoms after treatment with TPA (individual patient) [2, 10]: gradual improvement in symptoms; also recorded: their oral lesions, skin thrush and fever disappeared; also recorded: marked improvement in their symptoms; also recorded: The lymph node returned to normal size; also recorded: no improvement in symptoms occurred; also recorded: their symptoms remained unchanged; also recorded: the frequency of their colds decreased; also recorded: their diarrhea was completely gone; also recorded: their dizziness, headache and diarrhea gradually lessened; also recorded: the dizziness, headache, fever and skin thrush were improving and gradually faded away; also recorded: their symptoms disappeared completely; also recorded: all their symptoms disappeared; duration of the increase in body temperature [2, 11]: 1-2 hours and four and 4 hours; increase in body temperature during TPA treatment [2, 11]: 38-39 °C and 38 °C and 38.5 °C; additional patients with a decrease in symptoms [2, 12]: Three additional patients had a decrease in symptoms; patients who became symptom free [2, 12]: Eight patients became symptom free; patients with significant improvement following treatment ([2]; twelve symptomatic HIV patients, 75 μg/sq m i.v.): eleven of the patients showed significant improvement; PLt ([3]; Fifteen Days After TPA): 1.69e+11 L⁻¹ and 2.19e+11 L⁻¹ and 4.15e+11 L⁻¹ and 1.51e+11 L⁻¹ and 2.08e+11 L⁻¹ and 2.4e+11 L⁻¹; RBC ([3]; Fifteen Days After TPA): 4.03e+12 L⁻¹ and 3.41e+12 L⁻¹ and 3.65e+12 L⁻¹ and 2.98e+12 L⁻¹ and 3.69e+12 L⁻¹ and 3.88e+12 L⁻¹; Rb ([3]; Fifteen Days After TPA): 114 g/L and 101 g/L and 142 g/L and 118 g/L and 141 g/L and 140 g/L; WBC ([3]; Fifteen Days After TPA): 4.1 ×10^9/L and 5 ×10^9/L and 8.1 ×10^9/L (2×) and 6.4 ×10^9/L and 9 ×10^9/L; PLt ([3]; Forty Days After TPA): 3.04e+11 L⁻¹ and 1.52e+11 L⁻¹ and 2.62e+11 L⁻¹ and 2.91e+11 L⁻¹ and 1.31e+11 L⁻¹ and 1.49e+11 L⁻¹; RBC ([3]; Forty Days After TPA): 3.9e+12 L⁻¹ and 4.44e+12 L⁻¹ and 4.13e+12 L⁻¹ and 3.86e+12 L⁻¹ and 3.49e+12 L⁻¹ and 4.14e+12 L⁻¹; Rb ([3]; Forty Days After TPA): 125 g/L and 109 g/L and 110 g/L and 124 g/L and 116 g/L and 131 g/L; WBC ([3]; Forty Days After TPA): 4.6 ×10^9/L (2×) and 3.9 ×10^9/L (2×) and 6.2 ×10^9/L and 4.9 ×10^9/L; PLt ([3]; Sixty Days After TPA): 2.21e+11 L⁻¹ and 2.27e+11 L⁻¹ and 2.39e+11 L⁻¹ and 2.76e+11 L⁻¹ and 1.21e+11 L⁻¹ and 2.22e+11 L⁻¹; RBC ([3]; Sixty Days After TPA): 4.55e+12 L⁻¹ and 4.31e+12 L⁻¹ and 4.04e+12 L⁻¹ and 4.1e+12 L⁻¹ and 3.34e+12 L⁻¹ and 4.56e+12 L⁻¹; Rb ([3]; Sixty Days After TPA): 126 g/L and 96 g/L and 99 g/L (2×) and 123 g/L and 136 g/L; WBC ([3]; Sixty Days After TPA): 8.8e+09 L⁻¹ and 4.4e+09 L⁻¹ and 6.2e+09 L⁻¹ and 5.1e+09 L⁻¹ and 7.7e+09 L⁻¹ and 3.5e+09 L⁻¹; PLt ([3]; Thirty Days After Stopping TPA): 2.72e+11 L⁻¹ and 1.93e+11 L⁻¹ and 2.78e+11 L⁻¹ and 2.24e+11 L⁻¹ and 1.78e+11 L⁻¹; RBC ([3]; Thirty Days After Stopping TPA): 4.55e+12 L⁻¹ and 4.4e+12 L⁻¹ and 3.9e+12 L⁻¹ and 4.71e+12 L⁻¹ and 3.42e+12 L⁻¹; Rb ([3]; Thirty Days After Stopping TPA): 130 g/L and 104 g/L and 110 g/L and 144 g/L and 100 g/L; WBC ([3]; Thirty Days After Stopping TPA): 7.5e+09 L⁻¹ and 6.5e+09 L⁻¹ and 8.4e+09 L⁻¹ and 3.8e+09 L⁻¹ and 4.8e+09 L⁻¹; PLt ([3]; Thirty Days After TPA): 2.32e+11 L⁻¹ and 2.47e+11 L⁻¹ and 3.45e+11 L⁻¹ and 1.77e+11 L⁻¹ and 2.28e+11 L⁻¹ and 2.75e+11 L⁻¹; RBC ([3]; Thirty Days After TPA): 4.48e+12 L⁻¹ and 3.83e+12 L⁻¹ and 4.03e+12 L⁻¹ and 3.2e+12 L⁻¹ and 4.32e+12 L⁻¹ and 4.35e+12 L⁻¹; Rb ([3]; Thirty Days After TPA): 116 g/L and 113 g/L and 145 g/L and 121 g/L and 154 g/L and 148 g/L; WBC ([3]; Thirty Days After TPA): 5.9e+09 L⁻¹ and 5.2e+09 L⁻¹ and 4.3e+09 L⁻¹ and 4e+09 L⁻¹ and 4.5e+09 L⁻¹ and 8.9e+09 L⁻¹; recurrence of AIDS symptoms ([4]; 120 day observation and treatment period): no recurrence of AIDS symptoms; side effects of TPA treatment (individual patient) ([4]; protocol of Example V): local irritation due to a leaking needle; also recorded: a fever on one occasion; also recorded: skin irritation from a leaking needle; also recorded: no side effects; AIDS symptoms during and after treatment (individual patient) ([4]; protocol of Example V, antiviral therapy stopped): No AIDS symptoms returned; also recorded: remains symptom free; also recorded: No AIDS symptoms occurred; fever during TPA infusion ([4]; protocol of Example V, individual patients): 38-38.5 °C and 38-39 °C; outcome, terminal breast cancer metastasized into the bone [5]: in remission and able to walk normally; recovery after stroke ([6]; stroke eighteen months before, 0.19, 0.24, 0.26 mg TPA every other day over 9 weeks): recovered fully; mobility in their face ([6]; stroke seven years before, 35 injections of 0.19 mg TPA): regained mobility in their face; improvement in the mobility of their right side ([6]; stroke seven years before, 35 injections of 0.19 mg TPA in ten weeks): 80%; inflammation and hyperpigmentation in the periorbital area [7]: reduced the inflammation and hyperpigmentation in the periorbital area; joint stiffness and hand function [8]: reduction in stiffness in the joints and an increase in functionality in their hands; urinary frequency ([9]; nine injections of 0.18 mg of TPA): regained normal urinary frequency; urinary frequency ([9]; six injections of 0.18 mg of TPA): regained normal urinary frequency
